These are literature values, as cited in patent publication US20140107050A1, “INCREASING BIOAVAILABILITY OF N-COUMAROYLDOPAMINE THROUGH CO-ADMINISTRATION WITH A CATECHOL-O-[…] (COMT) INHIBITOR” (Redefine Nutrition, LLC, priority 2012, published 2014).

pIC50: −log10 of the molar value.

Data set [1] addresses T1, catechol-o-methyltransferase (COMT) (Homo sapiens, UniProt P21964).
T1 sequence (P21964 1-271): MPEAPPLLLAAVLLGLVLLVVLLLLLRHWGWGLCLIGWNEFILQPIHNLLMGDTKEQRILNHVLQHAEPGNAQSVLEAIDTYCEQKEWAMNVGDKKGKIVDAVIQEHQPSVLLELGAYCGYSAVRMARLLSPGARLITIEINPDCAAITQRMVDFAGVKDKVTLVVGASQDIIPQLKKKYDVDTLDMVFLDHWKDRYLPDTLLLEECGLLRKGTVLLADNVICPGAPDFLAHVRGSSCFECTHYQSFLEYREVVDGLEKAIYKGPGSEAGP
As to conditions: values taken from cited literature; read-out: half maximal inhibitory concentration (IC50) for COMT inhibition.

Data set [2] has as its target T2, beta-adrenoreceptor (Homo sapiens, UniProt P07550).
T2 construct: increase cAMP via beta 2-adrenoreceptors in myelocytic U937 cells; endogenous in cells; host or cells: U937 cells
As to conditions: recent in vitro studies (Park 2005).

T2 sequence (P07550 whole entry): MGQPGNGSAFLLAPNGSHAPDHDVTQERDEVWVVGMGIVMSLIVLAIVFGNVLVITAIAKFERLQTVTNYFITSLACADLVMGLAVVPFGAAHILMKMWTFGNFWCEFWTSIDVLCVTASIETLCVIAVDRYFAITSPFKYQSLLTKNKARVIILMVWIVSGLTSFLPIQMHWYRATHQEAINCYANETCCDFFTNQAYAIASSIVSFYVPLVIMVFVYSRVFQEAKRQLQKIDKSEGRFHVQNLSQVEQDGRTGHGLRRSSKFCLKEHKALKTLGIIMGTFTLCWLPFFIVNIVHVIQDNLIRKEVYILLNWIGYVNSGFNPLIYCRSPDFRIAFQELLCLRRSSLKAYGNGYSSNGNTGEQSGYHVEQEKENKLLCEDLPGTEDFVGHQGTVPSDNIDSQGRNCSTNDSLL

As for `O=c1c(O)c(-c2ccc(O)c(O)c2)oc2cc(O)cc(O)c12` [quercetin], the pIC50 in data set [1] was approximately 6.30.
With `O=C(/C=C/c1ccc(O)cc1)NCCc1ccc(O)c(O)c1` [N-coumaroyldopamine], the beta-adrenoreceptor agonist activity entry in data set [2] is reported as “acts as a beta-adrenoreceptor agonist”.
`O=C(/C=C/c1ccc(O)c(O)c1)O[C@@H]1C[C@](O)(C(=O)O)C[C@@H](O)[C@H]1O` [chlorogenic acid]: the pIC50 in data set [1] is 5.85 to 5.89.
